The source made the active and inactive calls.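 Rule for the calls: active = IC50 at or below ten times the top tested concentration; inconclusive = flat fit at 30 to 70% inhibition, or invalid poor fit; inactive = IC50 beyond ten times the top tested dose.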

For this assay, the target named is POS-1 (Caenorhabditis elegans) binding to mex-3 RNA. Kind of assay: disruptors of C. elegans POS-1 RNA interaction – biochemical, fluorescence polarization, up to 135 µM, dose response (AID 2738). The following applies: POS-1-MBP / FITC mex-3 RNA.
For the molecule `CCN(CC)CCCNC(=O)CCC(=O)NNc1nc2ccccc2c2nc(C)nn12`, the 50% inhibitory concentration (IC50) is 2.2 µM.

Consider `COCCCNC(=O)CCC(=O)NNc1nc2ccccc2c2nc(C)nn12`, for which the IC50 is 8.56 µM.

Take `O=c1c(O)cccc2cc(O)c(O)c(O)c12`: the IC50 was 11.9 µM.

With `O=C(NNC(=O)c1ccccc1[N+](=O)[O-])c1csc(N2CCOCC2)n1`, the IC50 is 119 µM.

As for `O=CN/N=C/c1c(O)ccc2ccccc12`, the IC50 was 22 µM.

Turning to `CCCCN(C)C(=O)CCC(=O)NNc1nc2ccccc2c2nc(C)nn12`, the IC50 was 62.3 µM.

In the case of `CCc1ccccc1N1C(=O)/C(=C\c2ccc(N3CCN(C)CC3)o2)C(=O)NC1=S`, the IC50 was > 135 µM (inactive).

Consider `ON=C1/C(=N\O)CC2(C/C1=N/O)OCCO2`, for which the IC50 was > 135 µM (inactive).

For `CCN(CC)c1ccc(/C=C2\C(=O)NC(=S)N(C)C2=O)o1`, the IC50 was > 135 µM (inactive).

As for `CCOC(=O)c1cc(CC)sc1/N=C/c1c(O)[nH]c(=S)[nH]c1=O`, the half-maximal inhibitory concentration (IC50) was 45.5 µM.

In the case of `Cn1ncc2c(NNC(=O)Cc3ccccc3)ncnc21`, the half-inhibitory concentration (IC50) is 127 µM.

With `NC(CO)C(=O)NNCc1ccc(O)c(O)c1O` (stereo not given), the IC50 is > 135 µM (inactive).

Take `Cc1ccc(N2C(=O)NC(=O)/C(=C\c3cc(C)n(-c4ccc(C(=O)O)cc4)c3C)C2=O)cc1`: the IC50 is > 135 µM (inactive).

Regarding `N=c1c(C(=O)NC2CCCCC2)cc2c(=O)n3ccccc3nc2n1Cc1cccnc1`, the IC50 is > 350 µM (inactive).

With `CCN(CC)c1ccc(/C=C2\C(=O)NC(=S)N(c3ccc(OC)cc3OC)C2=O)o1`, the IC50 is > 135 µM (inactive).

As for `CC1=C(C(=O)OCc2ccccc2)C(c2ccccc2[N+](=O)[O-])NC(=O)N1C` (stereo not given), the IC50 was 25.6 µM.

Consider `Cc1ncc(CO)c(/C=N/NC(=O)c2cc(Br)ccc2O)c1O`, for which the IC50 is 51.2 µM.

Take `Cc1nc2ccccc2c(=O)n1/N=C/c1ccc(O)c(O)c1O`: the IC50 was 16.9 µM.

In the case of `COc1ccc(-c2cn[nH]c2-c2ccc(OCC(=O)NN)cc2O)cc1OC`, the IC50 is > 135 µM (inactive).

For the molecule `Oc1ccc(CCNc2c3ccccc3nc3ccccc23)cc1O`, the IC50 is > 135 µM (inactive).

In general, IC50 refers to the concentration at which inhibition is half-maximal.
